Results: patent US20100075894A1, “REDUCING ER STRESS IN THE TREATMENT OF OBESITY AND DIABETES” (HARVARD UNIVERSITY, priority 2004, published 2010)

Test system: Fao liver cells
Assay: ER stress inducers and insulin action in Fao liver cells
Assay type: cell-based, rat
Procedure: (A) ER stress was induced in Fao liver cells by a 3-hour treatment with 5 μg/ml tunicamycin (Tun). Cells were subsequently stimulated with insulin (Ins). IRS-1 tyrosine and serine (Ser307) phosphorylation, Akt phosphorylation (Ser473), insulin receptor (IR) tyrosine phosphorylation, and their total protein levels were examined using either immunoprecipitation (IP) followed by immunoblotting (IB) or direct immunoblotting. (B) Quantitation of IRS-1 (tyrosine and Ser307), Akt (Ser473), and IR (tyrosine) phosphorylation under the experimental conditions described in (A) with normalization to protein levels for each molecule. (C) Inhibition of ER stress-induced (300 nM thapsigargin for 4 hours) Ser307 phosphorylation of IRS-1 by JNK-1 inhibitor, SP600125 (JNKi, 25 μM), (D) Quantitation of IRS-1 Ser307 phosphorylation under conditions described in (C). (E) Reversal of ER stress-induced inhibition of insulin-stimulated tyrosine phosphorylation (pY) of IRS-1 by a JNK inhibitor. (F) Quantitation of insulin-induced IRS-1 tyrosine phosphorylation levels described in (E). (G) JNK activity, Ser307 phosphorylation of IRS-1, and total IRS-1 levels at indicated times following tunicamycin treatment (Tun, 10 μg/ml for 1 hour) in IRE-1α^+/+ and IRE-1α^−/− fibroblasts. (H) Insulin-stimulated IRS-1 tyrosine phosphorylation and total IRS-1 levels following tunicamycin treatment (Tun, 10 μg/ml for 1 hour) in IRE-1α^+/+ and IRE-1α^−/− fibroblasts. […] All graphs show mean±SEM from at least 2 independent experiments and statistical significance from the controls is indicated by * with p<0.005.
(A) ER stress was induced in Fao cells by 1 hour treatment with 300 nM thapsigargin (Thap), and cells were subsequently stimulated with insulin (Ins). IRS-1 tyrosine phosphorylation (pY) and serine phosphorylation (pSer307), insulin receptor (IR) tyrosine phosphorylation, and total protein levels were examined using either immunoprecipitation (IP) followed by immunoblotting (IB) or direct immunoblotting. (B) Fao cells were treated with sulindac sulfide (SS: 0, 7.5, 30, and 60 μM) for 45 minutes with or without an additional hour of exposure to 300 nM thapsigargin (Thap). IRS-1 serine phosphorylation and total IRS-1 protein levels were examined as described above.
To investigate whether ER stress interferes with insulin action, we pretreated Fao liver cells with tunicamycin and thapsigargin, agents commonly used to induce ER stress. […] IRS-1 is a substrate for insulin receptor tyrosine kinase and serine phosphorylation of IRS-1, particularly mediated by JNK, reduces insulin receptor signaling (Hirosumi et al., Nature 420:333 (2002); incorporated herein by reference).
Cells: Rat Fao liver cells were cultured with RPMI 1640 (Gibco, Grand Island, N.Y.) containing 10% fetal bovine serum (FBS). […]

[1] = Fao cells pretreated with the agent

## tunicamycin
[1]
  insulin-induced Akt phosphorylation: suppressed
  serine phosphorylation of IRS-1: significant increase
Fao liver cells pretreated with the agent
  insulin-stimulated tyrosine phosphorylation of IRS-1: significantly decreased
